# How the values were obtained:
# morningglory = test: Test B pre/postemergence morningglory; format: in vivo, Ipomoea hederacea
# Procedure, shortened: (§1)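 Herbicidal effect was estimated by eye on a ten-point control scale after plants spent twelve to sixteen days in a greenhouse following soil or foliar treatment. Foliar sprays targeted plants at one to four leaves; all doses were formulated in a non-phytotoxic solvent with surfactant.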
# wheat = test: Test B pre/postemergence wheat; format: in vivo, Triticum aestivum
# Procedure, shortened: as §1
# rape = test: Test B pre/postemergence rape; format: in vivo, Brassica napus
# Procedure, shortened: as §1
# rice = test: Test B flood test rice; format: in vivo, Oryza sativa
# Procedure, shortened: (§2)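 Each value is a visual injury score relative to controls, with 10 meaning complete control and 0 no effect. Evaluation took place twelve to sixteen days after the 2-leaf-stage plants were treated and kept in the greenhouse.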
# purple nutsedge = test: Test B pre/postemergence purple nutsedge; format: in vivo, Cyperus rotundus
# Procedure, shortened: as §1
# soybean = test: Test B pre/postemergence soybean; format: in vivo, Glycine max
# Procedure, shortened: as §1
# pigweed = test: Test B pre/postemergence pigweed; format: in vivo, Amaranthus retroflexus
# Procedure, shortened: as §1
# bamyardgrass = test: Test B flood test barnyardgrass; format: in vivo, Echinochloa crus-galli
# Procedure, shortened: as §2
# giant foxtail = test: Test B pre/postemergence giant foxtail; format: in vivo, Setaria faberii
# Procedure, shortened: as §1
# wild oat = test: Test B pre/postemergence wild oat; format: in vivo, Avena fatua
# Procedure, shortened: as §1
# crabgrass = test: Test B pre/postemergence crabgrass; format: in vivo, Digitaria sanguinalis
# Procedure, shortened: as §1
# sugar beet = test: Test B pre/postemergence sugar beet; format: in vivo, Beta vulgaris
# Procedure, shortened: as §1
# cocklebur = test: Test B pre/postemergence cocklebur; format: in vivo, Xanthium strumarium
# Procedure, shortened: as §1
# corn = test: Test B pre/postemergence corn; format: in vivo, Zea mays
# Procedure, shortened: as §1
# duck salad = test: Test B flood test duck salad; format: in vivo, Heteranthera limosa
# Procedure, shortened: as §2
# velvetleaf = test: Test B pre/postemergence velvetleaf; format: in vivo, Abutilon theophrasti
# Procedure, shortened: as §1
# [1] = Postemergence, Rate 62 g/ha, scale 0 to 10, 0 is no effect, 10 is complete control
# [2] = Postemergence, Rate 125 g/ha, scale of 0 to 10 where 0 is no effect and 10 is complete control
# [3] = Postemergence, Rate 250 g/ha, scale of 0 to 10, 0 is no effect, 10 is complete control
# [4] = Postemergence, Rate 500 g/ha, scale of 0 to 10 where 0 is no effect and 10 is complete control
# [5] = Preemergence, Rate 62 g/ha, scale of 0 to 10 where 0 is no effect and 10 is complete control
# [6] = Preemergence, Rate 125 g/ha, scale of 0 to 10 where 0 is no effect and 10 is complete control
# [7] = Preemergence, Rate 250 g/ha, scale 0 to 10 (0 no effect, 10 complete control)
# [8] = Preemergence, Rate 500 g/ha, scale of 0 to 10 where 0 is no effect and 10 is complete control
# [9] = Rate 62 g/ha, flood test species, Pre-emergence, visual evaluation after twelve to sixteen days
# [10] = Rate 125 g/ha, under heading Pre-emergence, flood test species, visual evaluation after twelve to sixteen days
# [11] = Rate 250 g/ha, Pre-emergence (flood test species), scale 0 to 10, 0 is no effect, 10 is complete control
# [12] = Rate 500 g/ha, Pre-emergence section of Table B, 0 to 10 scale (0 no effect, 10 complete control)
smiles,measurement,setting,value
CC(C)N(C(=O)n1oc(=O)n(CC(=O)C2CCC2)c1=O)c1ccc(Cl)cc1 [Compound 643],"Plant response rating, Morningglory",morningglory; [1],0
same,Morningglory plant response rating,morningglory; [2],4
same,Morningglory plant response rating,morningglory; [3],4
same,"Plant response rating, Morningglory",morningglory; [4],6
same,Morningglory plant response rating,morningglory; [5],0
same,Morningglory plant response rating,morningglory; [6],0
same,"Plant response rating, Morningglory",morningglory; [7],0
same,"Plant response rating, Morningglory",morningglory; [8],0
same,"Plant response rating, Wheat",wheat; [1],0
same,Wheat plant response rating,wheat; [2],0
same,Wheat plant response rating,wheat; [3],0
same,Wheat plant response rating,wheat; [5],0
same,Wheat plant response rating,wheat; [6],0
same,"Plant response rating, Wheat",wheat; [7],0
same,"Plant response rating, Wheat",wheat; [8],0
same,Rape plant response rating,rape; [2],0
same,Rape plant response rating,rape; [3],0
same,"Plant response rating, Rape",rape; [4],0
same,Rape plant response rating,rape; [5],0
same,Rape plant response rating,rape; [6],0
same,"Plant response rating, Rape",rape; [7],0
same,"Plant response rating, Rape",rape; [8],6
same,"Plant response rating, Rice (0 to 10 scale, 0 is no effect, 10 is complete control)",rice; [9],0
same,"Rice plant response rating (0 to 10 scale, 0 is no effect, 10 is complete control)",rice; [10],0
same,Rice plant response rating,rice; [11],0
same,Rice plant response rating,rice; [12],0
same,"Plant response rating, Nutsedge",purple nutsedge; [1],0
same,Nutsedge plant response rating,purple nutsedge; [2],0
same,Nutsedge plant response rating,purple nutsedge; [3],0
same,"Plant response rating, Nutsedge",purple nutsedge; [4],0
same,Nutsedge plant response rating,purple nutsedge; [5],0
same,Nutsedge plant response rating,purple nutsedge; [6],0
same,"Plant response rating, Nutsedge",purple nutsedge; [7],0
same,"Plant response rating, Nutsedge",purple nutsedge; [8],0
same,"Plant response rating, Soybean",soybean; [1],1
same,Soybean plant response rating,soybean; [2],1
same,Soybean plant response rating,soybean; [3],1
same,Soybean plant response rating,soybean; [5],0
same,Soybean plant response rating,soybean; [6],0
same,"Plant response rating, Soybean",soybean; [7],0
same,"Plant response rating, Soybean",soybean; [8],0
same,"Plant response rating, Redroot pigweed",pigweed; [1],0
same,Redroot pigweed plant response rating,pigweed; [2],0
same,Redroot pigweed plant response rating,pigweed; [3],0
same,Redroot pigweed plant response rating,pigweed; [5],0
same,Redroot pigweed plant response rating,pigweed; [6],0
same,"Plant response rating, Redroot pigweed",pigweed; [7],0
same,"Plant response rating, Redroot pigweed",pigweed; [8],5
same,"Plant response rating, Barnyardgrass (0 to 10 scale, 0 is no effect, 10 is complete control)",bamyardgrass; [9],0
same,"Barnyardgrass plant response rating (0 to 10 scale, 0 is no effect, 10 is complete control)",bamyardgrass; [10],0
same,Barnyardgrass plant response rating,bamyardgrass; [11],0
same,Barnyardgrass plant response rating,bamyardgrass; [12],0
same,"Plant response rating, Giant foxtail",giant foxtail; [1],0
same,Giant foxtail plant response rating,giant foxtail; [2],0
same,Giant foxtail plant response rating,giant foxtail; [3],0
same,"Plant response rating, Giant foxtail",giant foxtail; [4],0
same,Giant foxtail plant response rating,giant foxtail; [5],6
same,Giant foxtail plant response rating,giant foxtail; [6],8
same,"Plant response rating, Giant foxtail",giant foxtail; [7],10
same,"Plant response rating, Giant foxtail",giant foxtail; [8],10
same,"Plant response rating, Wild oats",wild oat; [1],0
same,Wild oats plant response rating,wild oat; [2],1
same,Wild oats plant response rating,wild oat; [3],1
same,Wild oats plant response rating,wild oat; [5],0
same,Wild oats plant response rating,wild oat; [6],0
same,"Plant response rating, Wild oats",wild oat; [7],0
same,"Plant response rating, Wild oats",wild oat; [8],1
same,"Plant response rating, Crabgrass",crabgrass; [1],0
same,Crabgrass plant response rating,crabgrass; [2],0
same,Crabgrass plant response rating,crabgrass; [3],0
same,"Plant response rating, Crabgrass",crabgrass; [4],6
same,Crabgrass plant response rating,crabgrass; [5],0
same,Crabgrass plant response rating,crabgrass; [6],3
same,"Plant response rating, Crabgrass",crabgrass; [7],9
same,"Plant response rating, Crabgrass",crabgrass; [8],10
same,"Plant response rating, Sugarbeets",sugar beet; [1],0
same,Sugarbeets plant response rating,sugar beet; [2],0
same,Sugarbeets plant response rating,sugar beet; [3],0
same,Sugarbeets plant response rating,sugar beet; [5],0
same,Sugarbeets plant response rating,sugar beet; [6],0
same,"Plant response rating, Sugarbeets",sugar beet; [7],0
same,"Plant response rating, Sugarbeets",sugar beet; [8],0
same,"Plant response rating, Cocklebur",cocklebur; [1],0
same,Cocklebur plant response rating,cocklebur; [2],0
same,Cocklebur plant response rating,cocklebur; [3],0
same,"Plant response rating, Cocklebur",cocklebur; [4],0
same,Cocklebur plant response rating,cocklebur; [5],0
same,Cocklebur plant response rating,cocklebur; [6],0
same,"Plant response rating, Cocklebur",cocklebur; [7],0
same,"Plant response rating, Cocklebur",cocklebur; [8],0
same,"Plant response rating, Corn",corn; [1],0
same,Corn plant response rating,corn; [2],0
same,Corn plant response rating,corn; [3],0
same,"Plant response rating, Corn",corn; [4],0
same,Corn plant response rating,corn; [5],0
same,Corn plant response rating,corn; [6],0
same,"Plant response rating, Corn",corn; [7],0
same,"Plant response rating, Corn",corn; [8],0
same,"Plant response rating, Ducksalad (0 to 10 scale, 0 is no effect, 10 is complete control)",duck salad; [9],0
same,"Ducksalad plant response rating (0 to 10 scale, 0 is no effect, 10 is complete control)",duck salad; [10],0
same,Ducksalad plant response rating,duck salad; [11],0
same,Ducksalad plant response rating,duck salad; [12],0
same,"Plant response rating, Velvetleaf",velvetleaf; [1],0
same,Velvetleaf plant response rating,velvetleaf; [2],0
same,Velvetleaf plant response rating,velvetleaf; [3],0
same,Velvetleaf plant response rating,velvetleaf; [5],0
same,Velvetleaf plant response rating,velvetleaf; [6],0
same,"Plant response rating, Velvetleaf",velvetleaf; [7],0
same,"Plant response rating, Velvetleaf",velvetleaf; [8],0

# — patent US6737383B1, “Herbicidal oxadiazolidines” (priority 1999, dated 2004)
